Results: patent US20260231994A1, “TASTE-ENHANCING COMPOSITION, METHOD FOR PRODUCING SAME, FOOD PRODUCT, AND METHOD FOR ENHANCING TASTE OF FOOD PRODUCT” (HOUSE FOODS GROUP INC., priority 2023, published 2026)

Tests used:
Assay type in all cases: in vivo
[1] = Experiment 6 sensory evaluation of cyclic dipeptides, “top sharp saltiness”
Protocol: (§1) An aqueous solution in which the concentration of each of the cyclic dipeptides shown in the table described below is set to be the same as its concentration in the heat-treated coriander prepared in 1.1. described above, as estimated from the ratio of the peak area of the cyclic dipeptides to the peak area of the internal standard (47 μg/g of L-lysine-^13C6 monohydrochloride) (hereinafter referred to as “heat-treated coriander equivalent aqueous solution”) was prepared. An aqueous solution in which the concentration of each of the cyclic dipeptides is set to be the same as its concentration in the heat-treated paprika of Example 203 prepared in 2.1 described above (hereinafter referred to as “heat-treated paprika equivalent aqueous solution”) was also prepared. Cyclic dipeptides prepared by the applicant were used in this experiment. As a cyclic dipeptide comprising Leu/Ile, a mixture comprising equal parts of cyclic dipeptide comprising Leu and cyclic dipeptide comprising Ile was used.
(§2) Common and reduced-sodium curry rouxes were prepared according to the procedures described in (1) and (2) of 1.3. described above.
(§3) Two dispersions of 44 g of the aforesaid reduced-sodium curry roux dispersed in 300 g of hot water were prepared. To one of them was added the heat-treated coriander equivalent solution or heat-treated paprika equivalent aqueous solution of the individual cyclic dipeptides shown in the table described below so as to be in the final concentration of 0.5% (w/w) or 1.0% (w/w), respectively.
(§4) Forty-four grams of the aforesaid common curry roux was dispersed in 300 g of hot water.
(§5) The dispersion of reduced-sodium curry roux dispersed in hot water and the dispersion of common curry roux dispersed in hot water were used as comparative controls, and the strength of the flavor was evaluated by three evaluators on the basis of the following evaluation criteria from the viewpoint of “top sharp saltiness”, “middle fullness (enhanced thickness) and “boosting of last flavor (aftertaste).”
(§6) The average of the evaluated scores was defined as “F” when it was 1.0 or lower, “C” when it was 1.1 or higher and 1.9 or lower, “B” when it was 2.0 or higher and 2.5 or lower, “A” when it was 2.6 or higher and 2.9 or lower, and “AA” when it was 3.0 or higher.
(§7) In the table described below, “ID” refers to the compound ID described above. The items of “coriander 0.5%” and “coriander 1.0%” refer to the addition of the aforesaid heat-treated coriander equivalent aqueous solution of cyclic dipeptide so that the final concentrations may be 0.5% (w/w) and 1.0% (w/w), respectively. The items of “paprika 0.5%” and “paprika 1.0%” refer to the addition of the aforesaid heat-treated paprika equivalent aqueous solution of cyclic dipeptide so that the final concentration may be 0.5% (w/w) and 1.0% (w/w), respectively.

[2] = Experiment 6 sensory evaluation of cyclic dipeptides, “middle fullness (enhanced thickness)”
Protocol: as §1, §2, §3, §4, §5, §6, §7

[3] = Experiment 6 sensory evaluation of cyclic dipeptides, “boosting of last flavor (aftertaste)”
Protocol: as §1, §2, §3, §4, §5, §6, §7

[4] = Additive amount coriander 0.5% (heat-treated coriander equivalent aqueous solution, final 0.5% (w/w)), reduced-sodium curry roux
[5] = Additive amount coriander 0.5%, reduced-sodium curry roux
[6] = heat-treated coriander equivalent aqueous solution of cyclic dipeptide, final 1.0% (w/w) in reduced-sodium curry roux dispersion
[7] = heat-treated coriander equivalent aqueous solution of cyclic dipeptide, final 1.0% (w/w) in reduced-sodium curry roux dispersion, 3 evaluators
[8] = Additive amount paprika 0.5% (heat-treated paprika equivalent aqueous solution, final 0.5% (w/w)), reduced-sodium curry roux
[9] = Additive amount paprika 0.5%, reduced-sodium curry roux
[10] = heat-treated paprika equivalent aqueous solution of cyclic dipeptide, final 1.0% (w/w) in reduced-sodium curry roux dispersion
[11] = heat-treated paprika equivalent aqueous solution of cyclic dipeptide, final 1.0% (w/w) in reduced-sodium curry roux dispersion, 3 evaluators

Substance	Top sharp saltiness Average [1, 4] [points]	Top sharp saltiness Evaluation [1, 5]	Top sharp saltiness Evaluation [1, 6]	Top sharp saltiness Average [1, 7] [points]	Middle fullness Average [2, 5] [points]	Middle fullness Evaluation [2, 5]	Middle fullness Evaluation [2, 6]	Middle fullness Average [2, 7] [points]	Top sharp saltiness Average [1, 8] [points]	Top sharp saltiness Evaluation [1, 9]	Top sharp saltiness Evaluation [1, 10]	Top sharp saltiness Average [1, 11] [points]	Middle fullness Average [2, 9] [points]	Middle fullness Evaluation [2, 9]	Middle fullness Evaluation [2, 10]	Middle fullness Average [2, 11] [points]	Bosting of last flavor Average [3, 9] [points]	Bosting of last flavor Evaluation [3, 9]	Bosting of last flavor Evaluation [3, 10]	Bosting of last flavor Average [3, 11] [points]	further results
cyclic (Pro-Glu) [Coriander ID 48]	1.7	C (“C” when it was 1.1 or higher and 1.9 or lower)	B (“B” when it was 2.0 or higher and 2.5 or lower)	2.0	1.7	C (“C” when it was 1.1 or higher and 1.9 or lower)	B (“B” when it was 2.0 or higher and 2.5 or lower)	2.3													Bosting of last flavor Average [3, 5]: 1.8 points; Bosting of last flavor Evaluation [3, 5]: C (“C” when it was 1.1 or higher and 1.9 or lower); Bosting of last flavor Evaluation [3, 6]: B (“B” when it was 2.0 or higher and 2.5 or lower); Bosting of last flavor Average [3, 7]: 2.3 points
cyclic (Glu-Asp) [Coriander ID 12]									1.8	C (“C” when it was 1.1 or higher and 1.9 or lower)	C (“C” when it was 1.1 or higher and 1.9 or lower)	1.5	2.7	A (“A” when it was 2.6 or higher and 2.9 or lower)	B (“B” when it was 2.0 or higher and 2.5 or lower)	2.0	2.3	B (“B” when it was 2.0 or higher and 2.5 or lower)	B (“B” when it was 2.0 or higher and 2.5 or lower)	2.0	
cyclic (Phe-Tyr) [Coriander ID 41]									1.8	C (“C” when it was 1.1 or higher and 1.9 or lower)	A (“A” when it was 2.6 or higher and 2.9 or lower)	2.7	2.0	B (“B” when it was 2.0 or higher and 2.5 or lower)	AA (“AA” when it was 3.0 or higher)	3.0	2.0	B (“B” when it was 2.0 or higher and 2.5 or lower)	A (“A” when it was 2.6 or higher and 2.9 or lower)	2.8	
cyclic (Phe-Asp) [Coriander ID 34]									3.0	AA (“AA” when it was 3.0 or higher)	AA (“AA” when it was 3.0 or higher)	3.2	2.8	A (“A” when it was 2.6 or higher and 2.9 or lower)	AA (“AA” when it was 3.0 or higher)	3.2	2.7	A (“A” when it was 2.6 or higher and 2.9 or lower)	AA (“AA” when it was 3.0 or higher)	3.2	
cyclic (Tyr-Asp)									2.1	B (“B” when it was 2.0 or higher and 2.5 or lower)	B (“B” when it was 2.0 or higher and 2.5 or lower)	2.5	2.1	B (“B” when it was 2.0 or higher and 2.5 or lower)	A (“A” when it was 2.6 or higher and 2.9 or lower)	2.8	2.1	B (“B” when it was 2.0 or higher and 2.5 or lower)	A (“A” when it was 2.6 or higher and 2.9 or lower)	2.8	
cyclic (Val-Arg) [Coriander ID 20]	2.7	A (“A” when it was 2.6 or higher and 2.9 or lower)	C (“C” when it was 1.1 or higher and 1.9 or lower)	1.7	3.3	AA (“AA” when it was 3.0 or higher)	B (“B” when it was 2.0 or higher and 2.5 or lower)	2.0													Bosting of last flavor Average [3, 5]: 3.7 points; Bosting of last flavor Evaluation [3, 5]: AA (“AA” when it was 3.0 or higher); Bosting of last flavor Evaluation [3, 6]: B (“B” when it was 2.0 or higher and 2.5 or lower); Bosting of last flavor Average [3, 7]: 2.2 points
cyclic (Val-Tyr) [Coriander ID 35]									1.8	C (“C” when it was 1.1 or higher and 1.9 or lower)	B (“B” when it was 2.0 or higher and 2.5 or lower)	2.3	2.2	B (“B” when it was 2.0 or higher and 2.5 or lower)	B (“B” when it was 2.0 or higher and 2.5 or lower)	2.2	1.8	C (“C” when it was 1.1 or higher and 1.9 or lower)	B (“B” when it was 2.0 or higher and 2.5 or lower)	2.3	
cyclic (Tyr-His) [Coriander ID 50]	2.3	B (“B” when it was 2.0 or higher and 2.5 or lower)	AA (“AA” when it was 3.0 or higher)	3.3	2.5	B (“B” when it was 2.0 or higher and 2.5 or lower)	AA (“AA” when it was 3.0 or higher)	3.3													Bosting of last flavor Average [3, 5]: 2.8 points; Bosting of last flavor Evaluation [3, 5]: A (“A” when it was 2.6 or higher and 2.9 or lower); Bosting of last flavor Evaluation [3, 6]: AA (“AA” when it was 3.0 or higher); Bosting of last flavor Average [3, 7]: 3.0 points
cyclic (Arg-Leu/Ile) [Coriander ID 22]	2.6	A (“A” when it was 2.6 or higher and 2.9 or lower)	B (“B” when it was 2.0 or higher and 2.5 or lower)	2.0	2.6	A (“A” when it was 2.6 or higher and 2.9 or lower)	B (“B” when it was 2.0 or higher and 2.5 or lower)	2.5													Bosting of last flavor Average [3, 5]: 2.7 points; Bosting of last flavor Evaluation [3, 5]: A (“A” when it was 2.6 or higher and 2.9 or lower); Bosting of last flavor Evaluation [3, 6]: A (“A” when it was 2.6 or higher and 2.9 or lower); Bosting of last flavor Average [3, 7]: 2.8 points
cyclic (Ala-Asp) [Coriander ID 58]									3.0	AA (“AA” when it was 3.0 or higher)	AA (“AA” when it was 3.0 or higher)	3.0	3.3	AA (“AA” when it was 3.0 or higher)	AA (“AA” when it was 3.0 or higher)	3.0	3.2	AA (“AA” when it was 3.0 or higher)	AA (“AA” when it was 3.0 or higher)	3.2	
